Assay results as given in publication PMC3201797 (Bioorganic & medicinal chemistry letters, 2010).

Tests used:
Format in all cases: biochemical
[1] = molecular target: T1, prostate-specific membrane antigen (PSMA) (Homo sapiens, UniProt Q04609); test: PSMA enzyme inhibition assay with purified PSMA
[2] = molecular target: T1, prostate-specific membrane antigen (PSMA); test: PSMA enzyme inhibition assay
[3] = molecular target: T1, prostate-specific membrane antigen (PSMA); test: PSMA enzyme inhibition assay with purified PSMA; remark: listed apart in the source

T1 sequence (Q04609 whole entry): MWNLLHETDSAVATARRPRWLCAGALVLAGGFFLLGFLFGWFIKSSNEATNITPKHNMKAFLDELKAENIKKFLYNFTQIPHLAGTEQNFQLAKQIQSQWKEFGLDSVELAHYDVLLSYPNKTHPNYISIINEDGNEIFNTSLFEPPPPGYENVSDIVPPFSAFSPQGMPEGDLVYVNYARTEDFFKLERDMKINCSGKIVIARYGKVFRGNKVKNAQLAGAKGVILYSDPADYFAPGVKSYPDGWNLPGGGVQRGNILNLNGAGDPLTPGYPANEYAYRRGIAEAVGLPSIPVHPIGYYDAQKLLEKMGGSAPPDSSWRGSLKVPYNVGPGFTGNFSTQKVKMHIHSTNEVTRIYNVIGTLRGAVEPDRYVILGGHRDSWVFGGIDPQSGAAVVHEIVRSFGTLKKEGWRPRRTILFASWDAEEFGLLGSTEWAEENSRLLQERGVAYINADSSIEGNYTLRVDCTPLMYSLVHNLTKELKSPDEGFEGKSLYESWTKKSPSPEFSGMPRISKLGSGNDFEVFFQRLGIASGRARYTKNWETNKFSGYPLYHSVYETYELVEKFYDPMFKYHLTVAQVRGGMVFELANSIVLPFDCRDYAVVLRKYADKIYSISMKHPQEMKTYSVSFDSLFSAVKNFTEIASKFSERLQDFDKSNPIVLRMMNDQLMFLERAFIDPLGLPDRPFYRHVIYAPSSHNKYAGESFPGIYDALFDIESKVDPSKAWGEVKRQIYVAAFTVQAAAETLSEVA

CTT-54.2
IC50 [1]: 144 nM

Cy5.5 free acid
IC50 [2]: 6100 nM

Cy5.5-CTT-54.2
IC50 [3]: 0.55 nM
